Reference: US10188704B2, “Enhanced melanoma cancer prevention by novel melanotropins” (ARIZONA BOARD OF REGENTS ON BEHALF OF THE UNIVERSITY OF …, priority 2015, dated 2019)
Like-named read-outs stand apart in the source and are kept apart here.

Assays:
[1] = target: T1, hMC3R (Homo sapiens, UniProt P41968); test: Competition binding assay with [125I]-NDP-α-MSH, whole HEK293 cells expressing hMC3R; set-up: expressed in transfected cells; host or cells: HEK293; settings: for MC3R % BE (Percent Binding Efficiency): maximal % of 125I-NDP-α-MSH displacement observed at 10 μM
T1 sequence (P41968 whole entry): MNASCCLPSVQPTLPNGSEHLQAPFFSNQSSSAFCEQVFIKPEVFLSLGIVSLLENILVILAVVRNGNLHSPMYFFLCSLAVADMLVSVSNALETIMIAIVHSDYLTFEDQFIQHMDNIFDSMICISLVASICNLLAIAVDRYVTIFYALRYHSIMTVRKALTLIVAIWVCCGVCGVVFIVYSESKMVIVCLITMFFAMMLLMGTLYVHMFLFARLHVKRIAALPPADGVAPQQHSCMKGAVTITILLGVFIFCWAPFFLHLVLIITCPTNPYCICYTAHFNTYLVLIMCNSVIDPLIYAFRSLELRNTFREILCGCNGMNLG
Experimental: (§1) Competition binding experiments were carried out using both of cloned cell line and melanoma cells (A375, ATCC). The whole HEK293 cells were stably expressing human MC1, MC3, MC4, and MC5 receptors. HEK293 cells transfected with hMCRs were seeded on 96-well plates 48 hours before assay (50,000 cells/well). For the assay, the cell culture medium was aspirated and the cells were washed once with a freshly prepared minimum essencial medium (MEM) buffer containing 100% minimum essential medium with Earle's salt (MEM, GIBCO), and 25 mM sodium bicarbonate. […] The assay medium was subsequently removed, the cells were washed once with basic medium, and then lysed by the addition of 100 μL of 0.1M NaOH and 100 μL of 1% Triton X-100.
(§2) IC50 values represent the mean of two experiments performed in triplicate. IC50 and EC50 estimates and their associated standard errors were determined by fitting the data using a nonlinear least squares analysis, with the help of GraphPad Prism 5 (GraphPad Software, San Diego, Calif.).

[2] = target: T2, hMC5R (Homo sapiens, UniProt P33032); test: Competition binding assay with [125I]-NDP-α-MSH, whole HEK293 cells expressing hMC5R; set-up: expressed in transfected cells; host or cells: HEK293; settings: for MC5R % BE (Percent Binding Efficiency): maximal % of 125I-NDP-α-MSH displacement observed at 10 μM
T2 sequence (P33032 whole entry): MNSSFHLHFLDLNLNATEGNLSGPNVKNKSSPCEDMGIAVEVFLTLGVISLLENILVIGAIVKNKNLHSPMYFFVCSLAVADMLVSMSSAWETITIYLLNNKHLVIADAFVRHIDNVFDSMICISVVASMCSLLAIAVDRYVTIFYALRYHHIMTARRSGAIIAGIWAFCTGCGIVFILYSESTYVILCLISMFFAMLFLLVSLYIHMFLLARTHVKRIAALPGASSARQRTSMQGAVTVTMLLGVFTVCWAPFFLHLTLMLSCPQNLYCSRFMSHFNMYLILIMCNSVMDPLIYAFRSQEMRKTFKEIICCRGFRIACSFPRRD
Experimental: as §1, §2

[3] = target: T3, hMC1R (Homo sapiens, UniProt Q01726); test: Competition binding assay with [125I]-NDP-α-MSH, whole HEK293 cells expressing hMC1R; settings: for IC50 / MC1R % BE (Percent Binding Efficiency): Table 4; for IC50: 50% specific binding (N = 4), NB = 0% of 125I-NDP-α-MSH displacement observed at 10 μM, read-out: MC1R IC50; for MC1R % BE (Percent Binding Efficiency): maximal % of 125I-NDP-α-MSH displacement observed at 10 μM; for selectivity towards hMC1R (binding, versus hMC3R, hMC4R, hMC5R): statement in words, refers to Table 4
T3 construct: expressed in transfected cells; host or cells: HEK293
T3 sequence (Q01726 whole entry): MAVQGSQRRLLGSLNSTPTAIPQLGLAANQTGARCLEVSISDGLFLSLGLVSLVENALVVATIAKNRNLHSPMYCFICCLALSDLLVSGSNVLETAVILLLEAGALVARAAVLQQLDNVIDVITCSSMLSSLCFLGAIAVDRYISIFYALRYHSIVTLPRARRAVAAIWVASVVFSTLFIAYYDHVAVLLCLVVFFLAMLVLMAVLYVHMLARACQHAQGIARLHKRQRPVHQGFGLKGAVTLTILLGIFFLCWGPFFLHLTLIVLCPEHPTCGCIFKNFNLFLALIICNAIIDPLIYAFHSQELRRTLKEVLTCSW
Experimental: as §1, §2

[4] = target: T4, hMC4R (Homo sapiens, UniProt P32245); test: Competition binding assay with [125I]-NDP-α-MSH, whole HEK293 cells expressing hMC4R; set-up: expressed in transfected cells; host or cells: HEK293; settings: for MC4R % BE (Percent Binding Efficiency): maximal % of 125I-NDP-α-MSH displacement observed at 10 μM
T4 sequence (P32245 whole entry): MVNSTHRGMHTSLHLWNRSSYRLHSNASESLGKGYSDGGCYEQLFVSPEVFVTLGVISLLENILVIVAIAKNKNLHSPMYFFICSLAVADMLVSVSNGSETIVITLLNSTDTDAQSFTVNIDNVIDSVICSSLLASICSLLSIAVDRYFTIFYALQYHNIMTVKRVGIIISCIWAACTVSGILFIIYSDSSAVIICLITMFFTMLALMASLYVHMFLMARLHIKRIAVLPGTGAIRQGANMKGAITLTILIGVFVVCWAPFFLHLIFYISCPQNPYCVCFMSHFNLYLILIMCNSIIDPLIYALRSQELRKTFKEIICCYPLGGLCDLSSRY
Experimental: as §1, §2

[5] = target: T3, hMC1R; test: cAMP assay (intracellular cAMP accumulation) at hMC1R; assay type: cell-based; settings: Table 2; cAMP activity; read-out: hMC1R % max effect
Experimental: (§3) IC50 and EC50 estimates and their associated standard errors were determined by fitting the data using a nonlinear least squares analysis, with the help of GraphPad Prism 5 (GraphPad Software, San Diego, Calif.).

[6] = target: T2, hMC5R; test: cAMP assay (intracellular cAMP accumulation) at hMC5R; assay type: cell-based; set-up: expressed in transfected cells; settings: Table 2; for Emax: cAMP activity, read-out: hMC5R % max effect
Experimental: as §3

[7] = in vitro; assay type: in vitro ADME
[8] = target: T1, hMC3R; test: cAMP assay (intracellular cAMP accumulation) at hMC3R; assay type: cell-based; set-up: expressed in transfected cells; settings: Table 2; for EC50: 50% maximal intracellular cAMP accumulation (N = 4), tested 10^-10 to 10^-5 M
Experimental: as §3

[9] = target: T4, hMC4R; test: cAMP assay (intracellular cAMP accumulation) at hMC4R; assay type: cell-based; set-up: expressed in transfected cells; settings: Table 2; for Emax: cAMP activity, read-out: hMC4R % max effect
Experimental: as §3

[10] = Table 4, 50% specific binding (N = 4), NB = 0% of 125I-NDP-α-MSH displacement observed at 10 μM, read-out: MC3R IC50
[11] = Table 4, 50% specific binding (N = 4), NB = 0% of 125I-NDP-α-MSH displacement observed at 10 μM, read-out: MC5R IC50
[12] = Table 4, 50% specific binding (N = 4), NB = 0% of 125I-NDP-α-MSH displacement observed at 10 μM, read-out: MC4R IC50
[13] = Table 2, concentration of peptide at 50% specific binding (N = 4), tested 10^-10 to 10^-5 M, read-out: hMC3R IC50
[14] = Table 2, concentration of peptide at 50% specific binding (N = 4), tested 10^-10 to 10^-5 M, read-out: hMC5R IC50
[15] = 50% maximal intracellular cAMP accumulation (N = 4), tested 10^-10 to 10^-5 M

Row | Molecule | IC50 [1, 10] | MC3R % BE (Percent Binding Efficiency) ([1]; Table 4) | IC50 [2, 11] | MC5R % BE (Percent Binding Efficiency) ([2]; Table 4) | IC50 [3] | IC50 [4, 12] | MC4R % BE (Percent Binding Efficiency) ([4]; Table 4) | MC1R % BE (Percent Binding Efficiency) [3] | also measured
1 | CC(C)C[C@H](NC(=O)[C@@H](NC(=O)[C@@H](N)Cc1ccc(O)cc1)C(C)C)C(=O)NCC(=O)N[C@@H](Cc1c[nH]cn1)C(=O)N[C@@H](Cc1ccccc1)C(=O)N[C@@H](CCCNC(=N)N)C(=O)N[C@@H](Cc1c[nH]c2ccccc12)C(=O)N[C@@H](CC(=O)O)C(=O)N[C@@H](CCCNC(=N)N)C(=O)N[C@@H](Cc1ccccc1)C(=O)NCC(N)=O [SEQ ID NO. 9] | 1620 nM | 53% | > 10000 nM | 60% | 198 nM | 1020 nM | 100% | – | –
2 | CCCC[C@H](NC(=O)[C@@H](NC(=O)[C@@H](N)Cc1ccc(O)cc1)C(C)C)C(=O)NCC(=O)N[C@@H](Cc1cnc[nH]1)C(=O)N[C@H](Cc1ccc2ccccc2c1)C(=O)N[C@@H](CCCN=C(N)N)C(=O)N[C@H](Cc1c[nH]c2ccccc12)C(=O)N[C@@H](CC(=O)O)C(=O)N[C@@H](CCCN=C(N)N)C(=O)N[C@@H](Cc1ccccc1)C(=O)NCC(N)=O [SEQ ID NO. 11, H-Tyr-Val-Nle-Gly-His-D-Nal(2′)-Arg-D-Trp-Asp-Arg-Phe-Gly-NH2] | – | – | – | – | – | – | – | – | IC50 [1, 13]: 5 ± 0.6 nM; Emax [5]: 70%; IC50 [2, 14]: 3.5 ± 0.5 nM; Emax [6]: 6%; half-life [7]: 52 min; EC50 [8]: 300 ± 6 nM; Emax ([8]; cAMP activity, read-out: hMC3R % max effect): 6%
3 | CCCC[C@H](NC(=O)[C@@H](NC(=O)[C@H](Cc1ccc(O)cc1)NC(C)=O)C(C)C)C(=O)NCC(=O)N[C@@H](Cc1c[nH]cn1)C(=O)N[C@H](Cc1ccccc1)C(=O)N[C@@H](CCCNC(=N)N)C(=O)N[C@@H](Cc1c[nH]c2ccccc12)C(=O)N[C@@H](CC(=O)O)C(=O)N[C@@H](CCCNC(=N)N)C(=O)N[C@@H](Cc1ccccc1)C(=O)NCC(N)=O [SEQ ID NO. 12, Ac-Tyr-Val-Nle-Gly-His-D-Phe-Arg-Trp-Asp-Arg-Phe-Gly-NH2, reference compound] | – | – | – | – | – | – | – | – | Emax [9]: 100%
4 | H-YVLGHFLFDRFG-NH2 [SEQ ID NO. 5] [listing 1 of 2 here] | – | 45% | – | 0% | – | – | 58% | 100% | selectivity towards hMC1R (binding, versus hMC3R, hMC4R, hMC5R) [3]: highly selective for MC1R; selectivity towards hMC1R (binding, versus hMC3R, hMC4R, hMC5R) ([3]; listed as Peptide 5): significant selectivity towards hMC1R
5 | H-YVLGHFLFDRFG-NH2 [SEQ ID NO. 5] [listing 2 of 2 here] | > 10000 nM | – | – | – | 22 nM | 3210 nM | – | – | –
6 | H-YVLGHFLWDRFG-NH2 [SEQ ID NO. 4] [listing 1 of 2 here] | – | 26% | – | 57% | – | – | 47% | 100% | –
7 | H-YVLGHFLWDRFG-NH2 [SEQ ID NO. 4] [listing 2 of 2 here] | 1880 nM | – | 7.3 nM | – | 1480 nM | > 10000 nM | – | – | –
8 | H-YVLGPFLFDRFG-NH2 [SEQ ID NO. 7] | 1400 nM | 47% | 5.3 nM | 34% | 11 nM | 58 nM | 36% | 32% | –
9 | H-YVLGPFLWDRFG-NH2 [SEQ ID NO. 6] | 40 nM | 32% | 1.7 nM | 32% | – | 13 nM | 29% | – | –
10 | H-YVLGPFRFDRFG-NH2 [SEQ ID NO. 3] | 1250 nM | 33% | – | 0% | – | – | 0% | 0% | –
11 | H-YVLGPFRWDRFG-NH2 [SEQ ID NO. 2] | 165 nM | 100% | 67 nM | 100% | – | 76 nM | 100% | – | –
12 | H-YVMGPFRWDRFG-NH2 [SEQ ID NO. 10] | – | – | – | – | – | – | – | – | IC50 [1, 13]: 6.7 ± 1 nM; EC50 [9, 15]: 100 ± 11 nM; Emax [9]: 99%; IC50 [2, 14]: 340 ± 40 nM; EC50 [6, 15]: 82 ± 10 nM; Emax [6]: 97%; IC50 ([4]; Table 2, concentration of peptide at 50% specific binding (N = 4), tested 10^-10 to 10^-5 M, read-out: hMC4R IC50): 600 ± 70 nM; EC50 [8]: 0.33 ± 0.01 nM
